Where two headings read alike, the source gives them in different places.
Assays:
[1] = tested on: HIV-1 (IIIB), HIV-1 (NL4.3); assay: microbe, parasite or virus in culture; type: cell-based; conditions: for EC50: Human immunodeficiency virus 1, IIIB, MT4, MT-4 cells, 50% protection against HIV-induced cytopathogenic effect, MTT; for SI: selectivity index, ratio of CC50 to EC50
Method: (§1) A rapid and automated assay procedure was used for the in vitro evaluation of anti-HIV agents. An HTLV-1 transformed T4-cell line MT-4, which was previously shown to be highly susceptible to and permissive for HIV infection, served as the target cell line. Inhibition of the HIV-induced cytopathogenic effect was used as the end point. The viabitlity of both HIV- and mock-infected cells was assessed spectrophotometrically via in situ reduction of 3-(4,5-dimethylthiazol-2-yl)-2,5-diphenyltetrazolium bromide (MTT). The 50% cytotoxic concentration (CC50 in μM or μg/ml) was defined as the concentration of compound that reduced the absorbance of the mock-infected control sample by 50%. The percent protection achieved by the compound in HIV-infected cells was calculated by the following formula:
(§2) [formula] whereby (ODT)HIV is the optical density measured with a given concentration of the test compound in HIV-infected cells; (ODC)HIV is the optical density measured for the control untreated HIV-infected cells; (ODC)MOCK is the optical density measured for the control untreated mock-infected cells; all optical density values were determined at 540 nm. The dose achieving 50% protection according to the above formula was defined as the 50% inhibitory concentration (EC50 in μM or μg/ml). The ratio of CC50 to EC50 was defined as the selectivity index (SI). […] Examples of inhibition of cell proliferation by particular compounds of the invention can be found by looking at the respective CC50 values in the MT-4 cell line. Cells:
(§3) MT-4 cells (Miyoshi et al., 1982) were grown and maintained in RPMI 1640 medium supplemented with 10% heat-inactivated fetal calf serum, 2 mM I-glutamine, 0.1% sodium bicarbonate, and 20 μg of gentamicin per ml. Alternatively, the MT-4 cells may also be grown in RPMI 1640 medium supplemented with 10% FCS and 20 μg/ml of gentamicin (RPMI-complete).
The HIV-1 (IIIB) strain (Popovic et al., 1984) as well as the HIV-1 (NL4.3) strain (Adachi et al., J. Virol. 59, 284-291 (1986)) were used.

[2] = target: LEDGF/p75-HIV-1 integrase interaction (Human immunodeficiency virus type 1 group M subtype B (isolate HXB2) (HIV-1), UniProt P04585); assay: AlphaScreen assay of LEDGF-integrase interaction inhibition; type: binding
Method: Alphascreen Assay to Measure the LEDGF-Integrase Interaction Inhibitory Activity of Compounds of the Invention
The AlphaScreen assay was performed according to the manufacturer's protocol (Perkin Elmer, Benelux). Reactions were performed in 25 μl final volume in 384-well Optiwell™ microtiter plates (Perkin Elmer). The reaction buffer contained 25 mM Tris-HCl (pH 7.4), 150 mM NaCl, 1 mM MgCl2, 0.01% (v/v) Tween-20 and 0.1% (w/v) bovine serum albumin. His6-tagged integrase (300 nM final concentration) was incubated with the compounds for 30 min at 4° C. The compounds were added at varying concentrations spanning a wide range from 0.1 up to 100 μM. Afterwards 100 nM flag-LEDGF/p75 was added and incubation was prolonged for an additional hour at 4° C. Subsequently 5 μl of Ni-chelate-coated acceptor beads and 5 μl anti-flag donor beads were added to a final concentration of 20 μg/ml of both beads. Proteins and beads were incubated for 1 h at 30° C. in order to allow association to occur. Exposure of the reaction to direct light was omitted as much as possible and the emission of light from the acceptor beads was measured in the EnVision plate reader (Perkin Elmer, Benelux) and analyzed using the EnVision manager software. IN/DNA binding was analyzed in a similar setting using His6-tagged integrase (1 μM final concentration) and an oligodeoxynucleotide mimicking the IN ELISA oligonucleotide substrate (30 nM final concentration). Counterscreens with JPO2 or PogZ, respectively, were essentially performed as described previously.
His6-tagged HIV-1 integrase, 3xflag-tagged LEDGF/p75, MBP-JPO2 and MBP-PogZ were purified for AlphaScreen applications as described previously 23,25,56.

[3] = Cytotoxicity in mock-infected MT-4 cells (MTT); type: cell-based; conditions: human, 50% cytotoxic concentration
Method: as §1, §2, §3

[4] = His6-tagged integrase 300 nM, flag-LEDGF/p75 100 nM, read-out: Alphascreen IC50

Row | SMILES | EC50 [1] [µM] | SI [1] | IC50 [2, 4] [µM] | CC50 [3] [µM] | IC50 [2] [µM]
1 | CCCC(C(=O)O)c1c(C)nc2sc3c(c2c1-c1ccccc1F)CCCC3 (stereo not drawn) [Cpd 153, 2-[2-Methyl-4-(2-fluorophenyl)-5,6,7,8-tetrahydro[1]benzothieno[2,3-b]pyridin-3-yl]pentanoic acid] | 17 | >8 | 43.6 | > 125 | –
2 | CCCC(C(=O)O)c1c(C)nc2sc3c(c2c1-c1cc2ccccc2o1)CCCC3 (stereo not drawn) [Cpd 154, 2-[2-Methyl-4-(benzofuran-2-yl)-5,6,7,8-tetrahydro[1]benzothieno[2,3-b]pyridin-3-yl]pentanoic acid] | 6.28 | 14 | 8.12 | 90.5 | –
3 | Cc1ccc(-c2c(C(CCc3ccccc3)C(=O)O)c(C)nc3sc4c(c23)CCCC4)cc1 (stereo not drawn) [Cpd 155, 2-[2-Methyl-4-(p-tolyl)-5,6,7,8-tetrahydro[1]benzothieno[2,3-b]pyridin-3-yl]-4-phenylbutanoic acid] | > 22 | – | 81.9 | 22 | –
4 | Cc1ccc(-c2c(C(C(=O)O)C(C)C)c(C)nc3sc4c(c23)CCCC4)cc1 (stereo not drawn) [Cpd 156, 2-[2-Methyl-4-(p-tolyl)-5,6,7,8-tetrahydro[1]benzothieno[2,3-b]pyridin-3-yl]-3-methylbutanoic acid] | > 98 | – | 59.6 | 98 | –
5 | CCC(C)C(C(=O)O)c1c(C)nc2sc3c(c2c1-c1ccc(C)cc1)CCCC3 (stereo not drawn) [Cpd 157, 2-[2-Methyl-4-(p-tolyl)-5,6,7,8-tetrahydro[1]benzothieno[2,3-b]pyridin-3-yl]-3-methylpentanoic acid] | > 35 | – | 26.4 | 35 | –
6 | Cc1ccc(-c2c(C(CCC(F)(F)F)C(=O)O)c(C)nc3sc4c(c23)CCCC4)cc1 (stereo not drawn) [Cpd 158, 2-[2-Methyl-4-(p-tolyl)-5,6,7,8-tetrahydro[1]benzothieno[2,3-b]pyridin-3-yl]-5,5,5-trifluoropentanoic acid] | 5.48 | 11 | 13.5 | 58.5 | –
7 | C#CCC(C(=O)O)c1c(C)nc2sc3c(c2c1-c1ccc(C)cc1)CCCC3 (stereo not drawn) [Cpd 159, 2-[2-Methyl-4-(p-tolyl)-5,6,7,8-tetrahydro[1]benzothieno[2,3-b]pyridin-3-yl]-pent-4-yn-oic acid] | 7.54 | 13 | 13.3 | 99.5 | –
8 | CCCC(C(=O)O)c1c(C)nc2sc3c(c2c1-c1ccc(C)cc1OC)CCCC3 (stereo not drawn) [Cpd 160, 2-[2-methyl-4-(2-methoxy-4-methylphenyl)-5,6,7,8-tetrahydro[1]benzothieno[2,3-b]pyridin-3-yl]pentanoic acid] | 14.4 | 5 | 17.7 | 74 | –
9 | CCCC(C(=O)O)c1c(C)nc2sc3c(c2c1-c1ccc(C)cc1O)CCCC3.N (stereo not drawn) [Cpd 161, 2-[2-Methyl-4-(2-hydroxy-4-methylphenyl)-5,6,7,8-tetrahydro[1]benzothieno[2,3-b]pyridin-3-yl]pentanoate ammonium salt] | 0.147 | 1061 | – | 157 | 0.0554
10 | Cc1ccc(-c2c(C(CC(C)(C)C)C(=O)O)c(C)nc3sc4c(c23)CCCC4)cc1 (stereo not drawn) [Cpd 162, 2-[2-Methyl-4-(p-tolyl)-5,6,7,8-tetrahydro[1]benzothieno[2,3-b]pyridin-3-yl]-4,4-dimethylpentanoic acid] | 0.33 | 217 | 1.57 | 71.7 | –
11 | CCCC(C(=O)O)c1c(C)nc2sc3c(c2c1-c1ccc(C)cc1)CCN(Cc1ccccc1)C3 (stereo not drawn) [Cpd 163, 2-[7-Benzyl-2-methyl-4-(p-tolyl)-5,6,7,8-tetrahydro-9-thia-1,7-diaza-fluoren-3-yl]pentanoic acid] | > 23 | – | 4.5 | 23 | –
12 | Cc1ccc(-c2c(C(CC3CC3)C(=O)O)c(C)nc3sc4c(c23)CCCC4)cc1 (stereo not drawn) [Cpd 165, 2-[2-Methyl-4-(p-tolyl)-5,6,7,8-tetrahydro[1]benzothieno[2,3-b]pyridin-3-yl]-3-cyclopropylpropanoic acid] | 0.867 | 102 | < 1 | 89 | –
13 | CCCC(C(=O)NC#N)c1c(C)nc2sc3c(c2c1-c1ccc(C)cc1)CCCC3 (stereo not drawn) [Cpd 166, N-cyano-2-[2-Methyl-4-p-tolyl-5,6,7,8-tetrahydro[1]benzothieno[2,3-b]pyridin-3-yl]pentanamide] | > 131 | – | 3 | 131 | –
14 | CCCC(C(N)=O)c1c(C)nc2sc3c(c2c1-c1ccc(C)cc1)CCCC3 (stereo not drawn) [Cpd 167, 2-[2-Methyl-4-p-tolyl-5,6,7,8-tetrahydro[1]benzothieno[2,3-b]pyridin-3-yl]pentanamide] | > 26.1 | – | 63.7 | 26.1 | –
15 | Cc1ccc(-c2c(C(OC(C)(C)C)C(=O)O)c(C)nc3sc4c(c23)CCCC4)cc1 (stereo not drawn) [Cpd 170, 2-[2-Methyl-4-p-tolyl-5,6,7,8-tetrahydro[1]benzothieno[2,3-b]pyridin-3-yl]-2-tert-butoxyacetic acid] | 0.0263 | 4429 | 0.05 | 116 | –
16 | CCOC(C(=O)O)c1c(C)nc2sc3c(c2c1-c1ccc(C)cc1)CCCC3 (stereo not drawn) [Cpd 171, 2-[2-Methyl-4-p-tolyl-5,6,7,8-tetrahydro[1]benzothieno[2,3-b]pyridin-3-yl]-2-ethoxyacetic acid] | 0.112 | 1166 | 1.21 | 130 | –
17 | Cc1nc2sc3c(c2c(-c2cccnc2)c1C(OC(C)(C)C)C(=O)O)CCCC3 (stereo not drawn) [Cpd 173, 2-[2-Methyl-4-(pyridin-3-yl)-5,6,7,8-tetrahydro[1]benzothieno[2,3-b]pyridin-3-yl]-2-tert-butoxyacetic acid] | 4.51 | 50 | 5.9 | 225 | –
18 | CCCC(c1nnn[nH]1)c1c(C)nc2sc3c(c2c1-c1ccc(C)cc1)CCCC3 (stereo not drawn) [Cpd 175, 2-Methyl-4-(p-tolyl)-3-[1-(1H-tetrazol-5-yl)butyl]-5,6,7,8-tetrahydro[1]benzothieno[2,3-b]pyridine] | 8.89 | 9 | < 1 | 79.2 | –
19 | Cc1nc2sc3c(c2c(-c2cnn(C)c2)c1C(OC(C)(C)C)C(=O)O)CCCC3 (stereo not drawn) [Cpd 177, 2-[2-methyl-4-(1-methyl-1H-pyrazol-4-yl)-5,6,7,8-tetrahydro[1]benzothieno[2,3-b]pyridin-3-yl]-2-tert-butoxyacetic acid] | 1.17 | >181 | 11.7 | > 212 | –
20 | CCCC(C(=O)O)c1c(CC)nc2sc3c(c2c1-c1ccc(C)cc1)CCCC3 (stereo not drawn) [Cpd 181, 2-[2-ethyl-4-(p-tolyl)-5,6,7,8-tetrahydro[1]benzothieno[2,3-b]pyridin-3-yl]pentanoic acid] | 2.89 | 28 | 8.06 | 81 | –
21 | CCCC(c1c(C)nc2sc3c(c2c1-c1ccc(C)cc1)CCCC3)C1SC(=O)NC1=O (stereo not drawn) [Cpd 182] | > 27.3 | – | – | 27.3 | ~80
22 | Cc1ccc(-c2c(C(OC(C)(C)C)C(=O)O)c(C)nc3sc4c(c23)CCCC4)cn1 (stereo not drawn) [Cpd 184, 2-[2-methyl-4-(6-methylpyridin-3-yl)-5,6,7,8-tetrahydro[1]benzothieno[2,3-b]pyridin-3-yl]-2-tert-butoxyacetic acid] | 0.157 | 1513 | 3.44 | 237 | –
